Target: upper small intestine of rabbit (Oryctolagus cuniculus, UniProt G1T803)
Conditions: from ED50, contraction activity of native motilin taken as 100%
Procedure: An intestinal contraction activity was measured by Magnus method using upper small intestine of rabbit ["J. Pharm. Pharmac.", Vol. 28, pages 650-651 (1976)], on each motilin-like polypeptides (Example 1, wherein R1 is Hse, Asp-Gly-Ile-Phe-Hse, or Arg-Ile-Phe-Hse) according to the invention, as test samples and a conventional pure [Leu^13 ]-motilin, as control sample. The activities of the test samples and control sample were compared, under assumption of that an contraction activity caused by 10^-6 M acetylcholine is 100%.

upper small intestine of rabbit, sequence (G1T803 1-400): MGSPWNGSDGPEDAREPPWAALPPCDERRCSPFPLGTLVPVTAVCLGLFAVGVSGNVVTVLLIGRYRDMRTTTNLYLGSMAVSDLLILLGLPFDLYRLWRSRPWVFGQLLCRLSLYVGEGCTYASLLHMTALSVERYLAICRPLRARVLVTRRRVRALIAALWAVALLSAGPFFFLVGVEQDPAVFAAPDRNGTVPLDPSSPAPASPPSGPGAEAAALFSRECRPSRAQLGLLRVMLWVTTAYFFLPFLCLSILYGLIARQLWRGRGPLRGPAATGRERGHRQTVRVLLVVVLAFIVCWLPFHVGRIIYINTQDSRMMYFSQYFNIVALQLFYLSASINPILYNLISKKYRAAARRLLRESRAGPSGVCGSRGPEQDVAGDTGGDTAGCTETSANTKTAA

## CC[C@H](C)[C@H](NC(=O)[C@@H]1CCCN1C(=O)[C@@H](NC(=O)[C@@H](N)Cc1ccccc1)C(C)C)C(=O)N[C@@H](Cc1ccccc1)C(=O)N[C@H](C(=O)N[C@@H](Cc1ccc(O)cc1)C(=O)NCC(=O)N[C@@H](CCC(=O)O)C(=O)N[C@@H](CC(C)C)C(=O)N[C@@H](CCC(N)=O)C(=O)N[C@@H](CCCNC(=N)N)C(=O)N[C@@H](CCSC)C(=O)N[C@@H](CCC(N)=O)C(=O)N[C@@H](CCC(=O)O)C(=O)N[C@@H](CCCCN)C(=O)N[C@@H](CCC(=O)O)C(=O)N[C@@H](CCCNC(=N)N)C(=O)N[C@@H](CC(N)=O)C(=O)N[C@@H](CCCCN)C(=O)NCC(=O)N[C@@H](CCC(N)=O)C(=O)O)[C@@H](C)O [native motilin]
  Activity in vitro (%): 100%

— patent US5459049A, “Motilin-like polypeptide and use thereof” (priority 1989, dated 1995)
